In ChEMBL document CHEMBL2016477, “Pimarane diterpenes from the fungus Epicoccum sp. HS-1 associated with Apostichopus japonicus” (Bioorg Med Chem Lett, 2012) one finds IC50 data, which are given here for 3 compounds.

In brackets after ≈: the same amount, converted by molar mass. A value given as a limit tells only on which side of the number the result lay.

In one assay the test system is KB. Description: Cytotoxicity against human KB cells. The class given is functional, cell-based.
Assay [1] in a line: Cytotoxicity against multidrug resistant human KBv200 cells expressing p-glycoprotein. The class given is functional, cell-based.

As to `C=C[C@]1(C)C=C2C(=O)[C@@]3(O)OC[C@@]4(CCCC(C)(C)[C@@]43O)[C@@]2(O)[C@H](O)C1` [DIAPORTHINS B], the figures for the IC50 (in the assay with KB; in assay [1]) were 3.86 µg/mL (≈ 10.6 µM) and 6.52 µg/mL (≈ 17.9 µM), respectively.

Regarding `C=C[C@]1(C)C=C2C(=O)C(O)=C3C(C)(C)CCC[C@]3(C)[C@@]2(O)CC1`, the IC50 in the assay on KB came to 20.7 µg/mL (≈ 65.5 µM); in assay [1], 14.5 µg/mL (≈ 45.7 µM).

As for `C=C[C@]1(C)C=C2[C@@H](O)C[C@H]3C(C)(C)CCC[C@]3(C)[C@@]2(O)CC1`, the IC50 (in the assay with KB; in assay [1]) was above 100 µg/mL each time.
